# From patent US8252832B2, “Kinesin inhibitors as cancer therapeutics” (Novartis AG, priority 2007, dated 2012)
# Tests used:
# Assay in all cases: CellTiter-Glo proliferation, 72 hours
# Assay type in all cases: cell-based
# [1] = test system: AGS; settings: Homo sapiens, Gastric
# Description: (§1) Cell lines used were as follows: HCT-116 (National Cancer Institute's DCTF Tumor Repository, catalog #NCI-502568, Rockville, Md.), HCT-15 (National Cancer Institute's DCTF Tumor Repository, catalog#NCI-502711, Rockville, Md. available from American Type Tissue Collection, catalog #CLL-225), KB-3-1 (available from DSMZ, Deutsche Sammlung von Mikroorganismen und Zellkulturen GmbH (German Collection of Microorganisms and Cell Cultures—catalog number ACC 158), KB-V1 (available from DSMZ—catalog number ACC 149), AGS (available from American Type Culture Collection, Manassas Va., catalog number CRL-1739™), N87 (available from American Type Culture Collection, Manassas Va., catalog number CRL-5822), Hel92.1.7 (available from American Type Culture Collection, Manassas Va., catalog number TIB 180), K562 (available from American Type Culture Collection, Manassas Va., catalog number CRL-243™), MV4; 11 (American Tissue Culture Collection, Manassas Va., catalog number CRL-9591) and U937 (available from American Type Culture Collection, Manassas Va., catalog number CRL-1593.2).
# (§2) Cells were plated in 96-well plates at densities of about 500 cells per well of a 96-well plate and allowed to grow for 24 hours. The cells were then treated with various concentrations of compounds for 72 hours. Then, 100 μl of CellTiter-Glo® reagent was added (Promega Corporation). CellTiter-Glo® is used in a homogeneous method of determining the number of viable cells using the single CellTiter-Glo® reagent to detect ATP (U.S. Pat. Nos. 6,602,677 and 7,241,584) (see Promega product catalog #G7570). Following the addition of the CellTiter-Glo® reagent, the cells were incubated in the dark for 30 minutes. The amount of luminescence was determined for each well using a Wallac Trilux plate reader, which correlates with the number of cells per well. The number of viable cells in the wells that receive only DMSO (0.5%) served as an indication of 0% inhibition, while wells without cells served as 100% inhibition of cell growth. […] This broad activity is consistent with a compound that is a mitotic inhibitor.
# [2] = test system: HCT-116; settings: Homo sapiens; Colon, HCT-116, 72 hours
# Description: as §1, §2
# [3] = test system: HCT-15; settings: Homo sapiens; Colon, HCT-15, 72 hours
# Description: as §1, §2
# [4] = test system: Hel92.1.7; settings: Homo sapiens, HEL 92.1.7; Leukemia, Hel92.1.7, 72 hours
# Description: as §1, §2
# [5] = test system: K562; settings: Homo sapiens; Leukemia, K562, 72 hours
# Description: as §1, §2
# [6] = test system: KB3.1; settings: Homo sapiens, KB 3-1; Epidermoid, KB3.1, 72 hours
# Description: as §1, §2
# [7] = test system: KBV1; settings: Homo sapiens, KB-V1; Epidermoid, KBV1, 72 hours
# Description: as §1, §2
# [8] = test system: MV4-11; settings: Homo sapiens; Leukemia, MV4-11, 72 hours
# Description: as §1, §2
# [9] = test system: N87; settings: Gastric, N87, 72 hours
# Description: as §1, §2
# [10] = test system: U937; settings: Homo sapiens, U-937; Leukemia, U937, 72 hours
# Description: as §1, §2
smiles,measurement,setting,value
CC(C)(C)[C@H](c1nc(-c2cc(F)ccc2F)cn1Cc1ccccc1)N(CC[C@H](N)CF)C(=O)CO [Compound IIa],GI50,[1],0.2 nM
same,GI50,[2],0.1 nM
same,GI50,[3],0.3 nM
same,GI50,[4],0.5 nM
same,GI50,[5],0.1 nM
same,GI50,[6],0.6 nM
same,GI50,[7],6.5 nM
same,GI50,[8],0.2 nM
same,GI50,[9],1 nM
same,GI50,[10],0.1 nM
